How the values were obtained:
Brain = experiment: Drug uptake in brain of MDR1 a/b(-/-) and P-gp competant wild-type FVB mouse at 1 mg/kg, iv after 5 mins; type: ADME, organism-based; set-up: dose 1 mg/kg, route intravenous; conditions: in vivo
[1] = target: T1, Leucine-rich repeat serine/threonine-protein kinase 2 (Homo sapiens, UniProt Q5S007, G2019S); experiment: Inhibition of LRRK2 G2019S mutant (unknown origin) Ser935 phosphorylation expressed in HEK293 cells by cell-based assay
MDCK = experiment: Permeability in MDCK cells expressing MDR1; type: ADME, cell-based, Canis lupus familiaris; conditions: dog
[2] = target: Leucine-rich repeat serine/threonine-protein kinase 2 (Homo sapiens, UniProt Q5S007); experiment: Inhibition of wild type GST-tagged LRRK2 (970-2527 amino acids)(unknown origin) assessed as inhibition of LRRKtide phosphorylation by HTRF assay
Leucine-rich repeat serine/threonine-protein kinase 2 (Homo sapiens, UniProt Q5S007), sequence (Q5S007 whole entry, the tested form may be a part): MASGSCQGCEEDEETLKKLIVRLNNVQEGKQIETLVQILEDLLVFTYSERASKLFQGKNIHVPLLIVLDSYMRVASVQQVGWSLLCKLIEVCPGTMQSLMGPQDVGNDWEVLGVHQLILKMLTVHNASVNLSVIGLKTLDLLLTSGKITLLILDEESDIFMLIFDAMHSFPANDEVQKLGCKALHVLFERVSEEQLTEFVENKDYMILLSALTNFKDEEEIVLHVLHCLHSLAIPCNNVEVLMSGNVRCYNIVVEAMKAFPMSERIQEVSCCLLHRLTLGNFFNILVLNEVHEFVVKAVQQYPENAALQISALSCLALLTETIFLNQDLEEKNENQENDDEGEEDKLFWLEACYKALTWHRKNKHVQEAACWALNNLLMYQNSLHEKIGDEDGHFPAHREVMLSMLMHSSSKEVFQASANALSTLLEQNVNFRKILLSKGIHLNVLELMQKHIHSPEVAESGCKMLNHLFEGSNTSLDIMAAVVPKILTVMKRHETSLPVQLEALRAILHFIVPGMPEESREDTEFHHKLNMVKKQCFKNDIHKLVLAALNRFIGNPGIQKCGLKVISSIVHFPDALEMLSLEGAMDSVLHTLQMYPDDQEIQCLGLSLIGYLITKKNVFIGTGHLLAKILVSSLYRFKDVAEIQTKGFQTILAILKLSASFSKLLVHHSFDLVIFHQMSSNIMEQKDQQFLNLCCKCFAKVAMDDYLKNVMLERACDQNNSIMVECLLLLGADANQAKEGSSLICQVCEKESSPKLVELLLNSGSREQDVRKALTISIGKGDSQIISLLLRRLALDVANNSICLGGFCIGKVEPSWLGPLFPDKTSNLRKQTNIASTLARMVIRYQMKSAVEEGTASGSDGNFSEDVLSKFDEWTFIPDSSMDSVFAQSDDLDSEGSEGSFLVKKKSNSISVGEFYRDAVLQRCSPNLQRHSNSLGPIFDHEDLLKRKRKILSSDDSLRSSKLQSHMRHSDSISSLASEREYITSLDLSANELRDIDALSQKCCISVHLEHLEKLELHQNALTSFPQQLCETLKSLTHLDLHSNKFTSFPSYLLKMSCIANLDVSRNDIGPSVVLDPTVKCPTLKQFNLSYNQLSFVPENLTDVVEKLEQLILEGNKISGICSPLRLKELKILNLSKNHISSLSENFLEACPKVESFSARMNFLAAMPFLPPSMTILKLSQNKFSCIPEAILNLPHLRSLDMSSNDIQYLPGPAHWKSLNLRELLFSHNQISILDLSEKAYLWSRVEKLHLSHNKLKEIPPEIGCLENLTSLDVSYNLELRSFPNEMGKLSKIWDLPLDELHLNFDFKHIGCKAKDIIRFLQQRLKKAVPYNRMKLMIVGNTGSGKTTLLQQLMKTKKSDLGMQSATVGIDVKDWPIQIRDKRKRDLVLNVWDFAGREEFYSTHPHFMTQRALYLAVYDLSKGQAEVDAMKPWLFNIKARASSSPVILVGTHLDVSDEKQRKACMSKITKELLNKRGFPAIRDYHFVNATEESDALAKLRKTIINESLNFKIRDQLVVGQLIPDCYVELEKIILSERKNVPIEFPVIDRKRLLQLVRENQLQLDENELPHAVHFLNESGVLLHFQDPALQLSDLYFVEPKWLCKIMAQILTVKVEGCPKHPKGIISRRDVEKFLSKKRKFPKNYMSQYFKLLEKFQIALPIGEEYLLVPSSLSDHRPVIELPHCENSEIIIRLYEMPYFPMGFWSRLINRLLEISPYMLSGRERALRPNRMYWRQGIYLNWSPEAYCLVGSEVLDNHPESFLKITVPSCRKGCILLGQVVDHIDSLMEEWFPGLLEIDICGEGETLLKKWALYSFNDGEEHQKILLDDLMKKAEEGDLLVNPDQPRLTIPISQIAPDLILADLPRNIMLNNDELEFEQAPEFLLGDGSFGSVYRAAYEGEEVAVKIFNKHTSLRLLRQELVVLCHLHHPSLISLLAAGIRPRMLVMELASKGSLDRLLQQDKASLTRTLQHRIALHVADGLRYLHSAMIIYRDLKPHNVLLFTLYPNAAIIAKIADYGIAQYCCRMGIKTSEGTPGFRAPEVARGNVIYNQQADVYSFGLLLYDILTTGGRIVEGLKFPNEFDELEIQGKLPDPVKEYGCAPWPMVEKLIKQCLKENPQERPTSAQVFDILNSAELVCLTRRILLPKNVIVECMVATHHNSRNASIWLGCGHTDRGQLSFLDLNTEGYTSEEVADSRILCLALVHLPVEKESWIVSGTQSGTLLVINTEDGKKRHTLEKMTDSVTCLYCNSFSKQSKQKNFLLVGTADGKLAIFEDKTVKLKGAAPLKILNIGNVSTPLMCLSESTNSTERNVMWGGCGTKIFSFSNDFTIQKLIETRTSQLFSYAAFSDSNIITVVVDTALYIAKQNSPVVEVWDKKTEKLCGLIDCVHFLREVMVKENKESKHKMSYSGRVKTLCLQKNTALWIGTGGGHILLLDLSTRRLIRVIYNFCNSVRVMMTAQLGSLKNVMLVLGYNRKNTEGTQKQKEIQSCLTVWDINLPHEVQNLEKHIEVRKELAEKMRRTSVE

[3] = target: T1, Leucine-rich repeat serine/threonine-protein kinase 2; experiment: Inhibition of GST-tagged LRRK2 G2019S mutant (970-2527 amino acids) (unknown origin) assessed as inhibition of LRRKtide phosphorylation by HTRF assay
[4] = target: Proto-oncogene tyrosine-protein kinase receptor Ret (Homo sapiens) (UniProt P07949); experiment: Inhibition of RET (unknown origin) at 1 uM by single point assay
[5] = target: Cyclin-dependent kinase 5/CDK5 activator 1 (Homo sapiens) (UniProt Q00535+Q15078); experiment: Inhibition of CDK5/p25 (unknown origin) at 1 uM by single point assay; type: protein-complex assay
[6] = target: Glycogen synthase kinase-3 beta (Homo sapiens) (UniProt P49841); experiment: Inhibition of GSK3beta (unknown origin) at 1 uM by single point assay
[7] = target: T2, Interleukin-1 receptor-associated kinase 4 (Homo sapiens) (UniProt Q9NWZ3); experiment: Inhibition of IRAK4 (unknown origin) at 1 uM by single point assay
T2 sequence (whole entry): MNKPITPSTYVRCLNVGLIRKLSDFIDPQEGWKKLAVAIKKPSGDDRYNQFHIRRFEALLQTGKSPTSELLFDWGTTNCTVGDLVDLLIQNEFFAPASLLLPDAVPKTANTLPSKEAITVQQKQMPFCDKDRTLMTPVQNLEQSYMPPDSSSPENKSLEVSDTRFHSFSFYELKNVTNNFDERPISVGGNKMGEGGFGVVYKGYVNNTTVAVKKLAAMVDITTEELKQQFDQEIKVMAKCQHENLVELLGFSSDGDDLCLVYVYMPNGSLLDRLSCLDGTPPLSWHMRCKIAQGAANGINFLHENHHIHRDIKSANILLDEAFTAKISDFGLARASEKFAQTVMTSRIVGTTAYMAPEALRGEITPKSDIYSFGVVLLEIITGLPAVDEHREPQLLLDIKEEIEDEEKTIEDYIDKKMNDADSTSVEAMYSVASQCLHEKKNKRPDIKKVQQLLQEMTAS

[8] = target: Serine/threonine-protein kinase PLK1 (Homo sapiens) (UniProt P53350); experiment: Inhibition of PLK1 (unknown origin) at 1 uM by single point assay
[9] = target: Cyclin-dependent kinase 1/cyclin B1 (Homo sapiens) (UniProt P06493+P14635); experiment: Inhibition of CDK1/cyclin B (unknown origin) at 1 uM by single point assay; type: protein-complex assay
[10] = target: T3, Dual specificity protein kinase TTK (Homo sapiens) (UniProt P33981); experiment: Inhibition of TTK (unknown origin) at 1 uM by single point assay
T3 sequence (whole entry): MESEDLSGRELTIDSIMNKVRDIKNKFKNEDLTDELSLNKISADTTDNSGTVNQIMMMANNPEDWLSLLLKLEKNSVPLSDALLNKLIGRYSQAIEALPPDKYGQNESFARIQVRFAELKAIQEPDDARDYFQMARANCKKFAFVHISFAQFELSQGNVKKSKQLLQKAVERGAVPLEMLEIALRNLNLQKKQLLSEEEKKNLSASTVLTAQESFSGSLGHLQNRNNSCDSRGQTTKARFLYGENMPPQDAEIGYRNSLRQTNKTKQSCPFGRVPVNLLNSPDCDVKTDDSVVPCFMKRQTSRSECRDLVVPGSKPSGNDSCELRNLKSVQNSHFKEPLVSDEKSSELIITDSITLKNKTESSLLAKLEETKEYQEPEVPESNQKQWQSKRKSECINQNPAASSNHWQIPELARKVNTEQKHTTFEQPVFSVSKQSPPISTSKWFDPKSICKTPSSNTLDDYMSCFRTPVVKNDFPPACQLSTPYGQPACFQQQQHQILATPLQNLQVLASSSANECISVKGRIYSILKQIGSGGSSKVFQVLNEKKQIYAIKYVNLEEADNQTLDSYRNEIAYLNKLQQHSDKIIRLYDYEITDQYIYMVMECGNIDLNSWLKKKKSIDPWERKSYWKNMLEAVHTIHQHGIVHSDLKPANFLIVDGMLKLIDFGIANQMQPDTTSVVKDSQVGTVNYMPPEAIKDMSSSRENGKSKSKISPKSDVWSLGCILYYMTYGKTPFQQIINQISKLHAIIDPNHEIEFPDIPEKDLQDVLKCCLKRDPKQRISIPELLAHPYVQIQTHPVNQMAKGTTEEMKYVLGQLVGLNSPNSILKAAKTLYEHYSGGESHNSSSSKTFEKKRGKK

[11] = target: Receptor tyrosine-protein kinase erbB-4 (Homo sapiens) (UniProt Q15303); experiment: Inhibition of ErbB4 (unknown origin) at 1 uM by single point assay
Receptor tyrosine-protein kinase erbB-4 (Homo sapiens), sequence (Q15303 whole entry): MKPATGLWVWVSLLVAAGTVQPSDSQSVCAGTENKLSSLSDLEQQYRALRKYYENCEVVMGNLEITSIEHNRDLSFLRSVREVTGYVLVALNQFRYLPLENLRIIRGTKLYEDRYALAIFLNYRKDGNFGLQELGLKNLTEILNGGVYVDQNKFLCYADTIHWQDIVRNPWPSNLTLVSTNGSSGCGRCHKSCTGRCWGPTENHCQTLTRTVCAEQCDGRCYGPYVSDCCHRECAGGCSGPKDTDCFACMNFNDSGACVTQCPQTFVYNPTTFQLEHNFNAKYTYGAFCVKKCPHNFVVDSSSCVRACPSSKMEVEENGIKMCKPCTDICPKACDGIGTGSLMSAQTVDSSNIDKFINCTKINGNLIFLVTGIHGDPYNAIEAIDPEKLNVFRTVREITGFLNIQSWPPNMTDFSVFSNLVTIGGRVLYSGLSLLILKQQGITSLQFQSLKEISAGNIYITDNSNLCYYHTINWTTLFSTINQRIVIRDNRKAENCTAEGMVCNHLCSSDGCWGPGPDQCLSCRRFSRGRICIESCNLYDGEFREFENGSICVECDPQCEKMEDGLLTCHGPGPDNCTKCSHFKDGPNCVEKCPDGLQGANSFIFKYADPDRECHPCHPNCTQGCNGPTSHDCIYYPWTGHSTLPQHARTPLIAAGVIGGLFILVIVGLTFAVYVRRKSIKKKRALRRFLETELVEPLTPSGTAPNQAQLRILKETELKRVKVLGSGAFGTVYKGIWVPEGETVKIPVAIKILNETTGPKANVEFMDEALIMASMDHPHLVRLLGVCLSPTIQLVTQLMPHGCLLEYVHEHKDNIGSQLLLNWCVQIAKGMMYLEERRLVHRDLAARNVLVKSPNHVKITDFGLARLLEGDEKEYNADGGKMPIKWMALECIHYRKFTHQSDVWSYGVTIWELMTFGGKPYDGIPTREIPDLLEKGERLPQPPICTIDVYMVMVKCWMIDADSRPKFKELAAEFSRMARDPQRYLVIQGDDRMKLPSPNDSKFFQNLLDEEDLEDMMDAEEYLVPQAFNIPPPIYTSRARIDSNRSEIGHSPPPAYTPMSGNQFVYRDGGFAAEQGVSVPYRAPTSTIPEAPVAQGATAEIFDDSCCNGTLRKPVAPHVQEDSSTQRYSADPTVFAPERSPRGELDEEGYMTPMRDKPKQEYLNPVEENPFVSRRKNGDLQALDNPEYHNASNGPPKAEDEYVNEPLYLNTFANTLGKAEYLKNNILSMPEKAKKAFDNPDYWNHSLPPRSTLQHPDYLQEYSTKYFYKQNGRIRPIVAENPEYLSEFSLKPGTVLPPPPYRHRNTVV

[12] = target: Protein-tyrosine kinase 2-beta (Homo sapiens) (UniProt Q14289); experiment: Inhibition of PTK2B (unknown origin) at 1 uM by single point assay
[13] = target: Macrophage colony-stimulating factor 1 receptor (Homo sapiens) (UniProt P07333); experiment: Inhibition of CSF1R (unknown origin) at 1 uM by single point assay
[14] = target: Tyrosine-protein kinase JAK1 (Homo sapiens) (UniProt P23458); experiment: Inhibition of JAK1 (unknown origin) at 1 uM by single point assay
Tyrosine-protein kinase JAK1 (Homo sapiens), sequence (P23458 whole entry): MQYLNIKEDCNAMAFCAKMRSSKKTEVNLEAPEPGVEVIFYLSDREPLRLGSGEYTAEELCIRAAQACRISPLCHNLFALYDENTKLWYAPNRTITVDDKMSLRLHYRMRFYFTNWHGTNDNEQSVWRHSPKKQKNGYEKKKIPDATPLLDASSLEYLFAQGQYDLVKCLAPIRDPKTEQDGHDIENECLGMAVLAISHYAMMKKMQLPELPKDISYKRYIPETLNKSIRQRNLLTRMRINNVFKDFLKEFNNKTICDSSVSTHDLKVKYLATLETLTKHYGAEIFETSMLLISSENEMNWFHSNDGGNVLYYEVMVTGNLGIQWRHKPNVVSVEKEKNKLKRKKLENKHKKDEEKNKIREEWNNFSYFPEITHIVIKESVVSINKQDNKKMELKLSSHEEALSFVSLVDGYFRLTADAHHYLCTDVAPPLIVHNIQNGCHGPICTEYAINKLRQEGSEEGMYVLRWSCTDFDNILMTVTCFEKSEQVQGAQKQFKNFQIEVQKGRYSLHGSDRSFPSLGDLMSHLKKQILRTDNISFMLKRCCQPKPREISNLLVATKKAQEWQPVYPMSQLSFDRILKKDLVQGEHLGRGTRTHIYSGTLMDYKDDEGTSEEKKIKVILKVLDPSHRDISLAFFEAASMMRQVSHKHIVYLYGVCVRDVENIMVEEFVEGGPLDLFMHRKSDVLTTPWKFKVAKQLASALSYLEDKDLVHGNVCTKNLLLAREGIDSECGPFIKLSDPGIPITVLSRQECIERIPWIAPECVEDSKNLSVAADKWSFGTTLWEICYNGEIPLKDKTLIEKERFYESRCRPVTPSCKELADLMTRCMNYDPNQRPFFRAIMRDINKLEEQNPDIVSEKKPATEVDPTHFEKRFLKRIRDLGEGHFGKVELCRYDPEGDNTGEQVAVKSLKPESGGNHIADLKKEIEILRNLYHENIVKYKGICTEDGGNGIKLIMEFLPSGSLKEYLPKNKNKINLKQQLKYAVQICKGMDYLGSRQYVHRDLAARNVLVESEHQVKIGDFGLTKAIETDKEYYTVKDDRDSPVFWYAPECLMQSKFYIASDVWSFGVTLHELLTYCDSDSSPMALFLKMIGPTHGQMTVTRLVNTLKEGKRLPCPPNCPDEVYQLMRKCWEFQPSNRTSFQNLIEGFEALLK

[15] = target: T4, Aurora kinase A (Homo sapiens) (UniProt O14965); experiment: Inhibition of AURKA (unknown origin) at 1 uM by single point assay
T4 sequence (whole entry): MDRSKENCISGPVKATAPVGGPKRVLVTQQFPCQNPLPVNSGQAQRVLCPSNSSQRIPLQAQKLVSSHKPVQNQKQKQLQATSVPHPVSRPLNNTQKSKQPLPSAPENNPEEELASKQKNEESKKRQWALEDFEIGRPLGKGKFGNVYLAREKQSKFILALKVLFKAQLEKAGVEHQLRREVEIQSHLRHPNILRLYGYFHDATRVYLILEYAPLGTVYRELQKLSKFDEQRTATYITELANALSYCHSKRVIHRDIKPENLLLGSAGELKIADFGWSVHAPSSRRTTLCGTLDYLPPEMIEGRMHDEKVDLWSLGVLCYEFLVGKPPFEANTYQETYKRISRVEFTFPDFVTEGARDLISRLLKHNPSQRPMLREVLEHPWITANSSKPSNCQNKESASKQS

[16] = target: Dual specificity protein kinase CLK1 (Homo sapiens) (UniProt P49759); experiment: Inhibition of CLK1 (unknown origin) at 1 uM by single point assay

T1 sequence (Q5S007 whole entry G2019S): as the sequence (Q5S007 whole entry, the tested form may be a part) above, with G2019S counted along it

Drug uptake (Brain) | EC50 [1] [nM] | permeability (MDCK) | IC50 [2] [nM] | IC50 [3] [nM] | inhibition [4] [%] | inhibition [5] [%] | inhibition [6] [%] | inhibition [7] [%] | inhibition [8] [%] | inhibition [9] [%] | inhibition [10] [%] | inhibition [11] [%] | inhibition [12] [%] | inhibition [13] [%] | inhibition [14] [%] | inhibition [15] [%] | inhibition [16] [%] | SMILES
Active | 731 | impermeable | 48 | 27 |  |  |  |  |  |  |  |  |  |  |  |  |  | C[C@@H](Nc1c(C#N)cnc2cc(-c3ccc(-n4ccoc4=O)cc3)ccc12)C1CC1
Active | 140 | impermeable | 7 | 5 | 41 | 12 | 6 | 68 | 24 | 14 | -9 | 5 | 12 | 67 | 3 | 89 | 27 | CC(C)Nc1c(C#N)cnc2cc(-c3cnn(C)c3)ccc12
Active | 435 | impermeable | 31 | 28 | 43 | 16 | 28 | 29 | 20 | 12 | -4 | 19 | 33 | 60 | 16 | 71 | 32 | CC(C)Nc1c(C#N)cnc2cc(-c3ccc(S(C)(=O)=O)cc3)ccc12

— ChEMBL document CHEMBL2346515, “Discovery of 4-alkylamino-7-aryl-3-cyanoquinoline LRRK2 kinase inhibitors” (Bioorg Med Chem Lett, 2013)
